Assay results as given in PubChem BioAssay AID2060496 (Molecular Pharmacology Branch, DTP, NCI, 2025).

Test system: 276233-004-R-J1-PDC complex spheroid viability
Test: Anticancer human tumor 276233-004-R-J1-PDC patient-derived colon adenocarcinoma cell line growth inhibition [GQUAD]
Conditions: for IC50: curve of first compound; for viability, T/C: stronger effect = lower value
Text: DNA G-quadruplex Stabilizer Agents in Combinations in Complex Spheroids
A high-throughput screen of multi-cell type tumor spheroids was designed to identify active combinations of DNA G-quadruplex stabilizer agents and targeted small molecules. Complex spheroids include a stromal component modeled by human endothelial cells (HUVEC) and fibroblasts modeled by human mesenchymal stem cells (MSCs). The concentration ranges selected for each drug and investigational agent were based upon clinically achievable concentrations if the clinical Cmax of the agent was known.
Compounds. The drugs and investigational agents: pidnarulex (CX-5461; NSC782164), APTO-253 (NSC789042), BRACO-19 (NSC847499), peposertib (NSC802822), ceralasertib (NSC780249), elimusertib (NSC800525), camonsertib (NSC841442), AZD-1390 (NSC803789), olaparib (NSC753686), talazoparib (NSC767125), ART-558 (NSC835418), sotorasib (NSC818433), MRTX-1133 (NSC836407), SN-38 (NSC673596), topotecan (NSC609699), etoposide (NSC141540), doxorubicin (NSC123127), gemcitabine (NSC613327), 5-fluorouracil (NSC19893), paclitaxel (NSC125973), vemurafenib (NSC761431), panobinostat (NSC761190), R-306465 (JNJ-16241199; NSC773264), adavosertib (NSC754352), TP-3654 (NSC805149), carboplatin (NSC241240), KSQ-4279 (NSC840948), and staurosporine (NSC755774) were obtained from the National Cancer Institute (NCI) Developmental Therapeutics Program Chemical Repository (34). The FDA-approved anticancer drug set is available from the NCI Developmental Therapeutics Program. […] The stock solutions were prepared in dimethyl sulfoxide (DMSO, Sigma-Aldrich, St. Louis, MO, cat. D2650) at 800-fold the tested concentration and stored at -70 degrees C prior to their use. All drugs and investigational agents were tested over a range starting from a high concentration at or near the clinical Cmax and decreasing in half-log increments. If the clinical Cmax for an agent had not been determined, the highest concentration tested was 10 microM.
2.3 Cell Culture. All cells were maintained in an incubator at 37 degrees C and 5% CO2 with 95% humidity. The PDC lines were cultured according to standard operating procedures established by the NCI PDMR. All PDCs were thawed and cultured in Matrigel-coated flasks prepared with a working solution of 1X Ham's F-12 nutrient mix, without supplementation (Invitrogen, cat. 11765054), 100 U/mL penicillin-streptomycin (Invitrogen, cat. 15140122), and 2.5% Matrigel (Corning Inc., cat. 354248) for the first three passages. The 857933-349-R-J2-PDC line was cultured in 6C/Colon 1B media, which includes advanced DMEM/F-12 (Thermo Fisher Scientific, cat. 12634028), 10 mM HEPES (Thermo Fisher Scientific, cat. 15630080), 1X GlutaMAX supplement (Thermo Fisher Scientific, cat. 35050061), 0.1 mg/mL primocin (InvivoGen, cat. ant-pm-2), 10% defined fetal bovine serum, heat inactivated (HyClone Laboratories Inc., cat. SH30070.03HI), 50% L-WRN conditioned media (ATCC, cat. CRL-3276), 1.25 mM N-Acetyl-L-cysteine (Sigma-Aldrich, cat. A9165), 10 mM nicotinamide (Sigma-Aldrich, cat. N0636), 1X B-27 supplement (Thermo Fisher Scientific, cat. 17504044), 1X N-2 supplement (Thermo Fisher Scientific, cat. 17502048), 10 microM Y-27632 dihydrochloride (Tocris Bioscience, cat. 1254), and 50 ng/mL human EGF recombinant protein (Thermo Fisher Scientific, cat. PHG0311). The 485176-168-R4-J1-PDC line was cultured in Panc media, which includes all 6C/Colon 1B media components plus 100 ng/mL human FGF-10 (Thermo Fisher Scientific, cat. 100-26), 500 nM SB-431542 (Selleckchem, cat. S1067), and gastrin (Tocris, cat. 3006).
[…]

[1] = second compound 0.0316 µM, first compound 0.0316 µM
[2] = second compound 0.0316 µM, first compound 0.1 µM
[3] = second compound 0.0316 µM, first compound 0.316 µM
[4] = second compound 0.0316 µM, first compound 1 µM
[5] = second compound 0.0316 µM, first compound 3.16 µM
[6] = second compound 0.0316 µM, first compound 10 µM
[7] = second compound 0.1 µM, first compound 0.0316 µM
[8] = second compound 0.1 µM, first compound 0.1 µM
[9] = second compound 0.1 µM, first compound 0.316 µM
[10] = second compound 0.1 µM, first compound 1 µM
[11] = second compound 0.1 µM, first compound 3.16 µM
[12] = second compound 0.1 µM, first compound 10 µM
[13] = second compound 0.316 µM, first compound 0.0316 µM
[14] = second compound 0.316 µM, first compound 0.1 µM
[15] = second compound 0.316 µM, first compound 0.316 µM
[16] = second compound 0.316 µM, first compound 1 µM
[17] = second compound 0.316 µM, first compound 3.16 µM
[18] = second compound 0.316 µM, first compound 10 µM
[19] = second compound 1 µM, first compound 0.0316 µM
[20] = second compound 1 µM, first compound 0.1 µM
[21] = second compound 1 µM, first compound 0.316 µM
[22] = second compound 1 µM, first compound 1 µM
[23] = second compound 1 µM, first compound 3.16 µM
[24] = second compound 1 µM, first compound 10 µM
[25] = second compound 3.16 µM, first compound 0.0316 µM
[26] = second compound 3.16 µM, first compound 0.1 µM
[27] = second compound 3.16 µM, first compound 0.316 µM
[28] = second compound 3.16 µM, first compound 1 µM
[29] = second compound 3.16 µM, first compound 3.16 µM
[30] = second compound 3.16 µM, first compound 10 µM
[31] = second compound 10 µM, first compound 0.0316 µM
[32] = second compound 10 µM, first compound 0.1 µM
[33] = second compound 10 µM, first compound 0.316 µM
[34] = second compound 10 µM, first compound 1 µM
[35] = second compound 10 µM, first compound 3.16 µM
[36] = second compound 10 µM, first compound 10 µM
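Further: spheroids exposed to drugs for seven days.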
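Wherever viability, T/C is given: 100% = DMSO vehicle control viability.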

Compound: C=CC(=O)N1CCN(c2nc(=O)n(-c3c(C)ccnc3C(C)C)c3nc(-c4c(O)cccc4F)c(F)cc23)C(C)C1 (centres undefined) + Cc1cnc(CNC(=O)c2c(=O)c3ccc(N4CCCN(C)CC4)nc3n3c2sc2ccccc23)cn1
- IC50 (second compound 0.0316 µM): > 10 µM
- IC50 (second compound 0.1 µM): > 10 µM
- IC50 (second compound 0.316 µM): > 10 µM
- IC50 (second compound 1 µM): > 10 µM
- IC50 (second compound 3.16 µM): > 10 µM
- IC50 (second compound 10 µM): > 10 µM
- viability, T/C [1]: 82.3%
- viability, T/C [2]: 75.1%
- viability, T/C [3]: 81.3%
- viability, T/C [4]: 83.5%
- viability, T/C [5]: 103%
- viability, T/C [6]: 95.8%
- viability, T/C [7]: 93.6%
- viability, T/C [8]: 84.6%
- viability, T/C [9]: 94.9%
- viability, T/C [10]: 92.8%
- viability, T/C [11]: 98.4%
- viability, T/C [12]: 83.8%
- viability, T/C [13]: 80.6%
- viability, T/C [14]: 86.3%
- viability, T/C [15]: 82.6%
- viability, T/C [16]: 83.6%
- viability, T/C [17]: 83.3%
- viability, T/C [18]: 86.7%
- viability, T/C [19]: 76.3%
- viability, T/C [20]: 71%
- viability, T/C [21]: 88.9%
- viability, T/C [22]: 108%
- viability, T/C [23]: 79.5%
- viability, T/C [24]: 89.5%
- viability, T/C [25]: 75.1%
- viability, T/C [26]: 74.9%
- viability, T/C [27]: 77.1%
- viability, T/C [28]: 73.4%
- viability, T/C [29]: 77.7%
- viability, T/C [30]: 83.5%
- viability, T/C [31]: 62.7%
- viability, T/C [32]: 68.9%
- viability, T/C [33]: 75.6%
- viability, T/C [34]: 61.6%
- viability, T/C [35]: 80.3%
- viability, T/C [36]: 68.8%

Compound: O=C(c1cc(Cc2n[nH]c(=O)c3ccccc23)ccc1F)N1CCN(C(=O)C2CC2)CC1 + Cc1[nH]c2ccc(F)cc2c1-c1nc2c3cccnc3c3ncccc3c2[nH]1
- IC50 (second compound 0.0316 µM): > 10 µM
- IC50 (second compound 0.1 µM): > 10 µM
- IC50 (second compound 0.316 µM): > 10 µM
- IC50 (second compound 1 µM): > 10 µM
- IC50 (second compound 3.16 µM): > 10 µM
- IC50 (second compound 10 µM): < 0.0316 µM
- viability, T/C [1]: 108%
- viability, T/C [2]: 95.4%
- viability, T/C [3]: 92.5%
- viability, T/C [4]: 73.3%
- viability, T/C [5]: 95.1%
- viability, T/C [6]: 83.4%
- viability, T/C [7]: 83.6%
- viability, T/C [8]: 90.4%
- viability, T/C [9]: 92%
- viability, T/C [10]: 90.4%
- viability, T/C [11]: 91.6%
- viability, T/C [12]: 101%
- viability, T/C [13]: 75.4%
- viability, T/C [14]: 86.2%
- viability, T/C [15]: 85%
- viability, T/C [16]: 91.1%
- viability, T/C [17]: 85.9%
- viability, T/C [18]: 81.4%
- viability, T/C [19]: 69%
- viability, T/C [20]: 79.5%
- viability, T/C [21]: 77.4%
- viability, T/C [22]: 69.7%
- viability, T/C [23]: 64.4%
- viability, T/C [24]: 83.2%
- viability, T/C [25]: 51.5%
- viability, T/C [26]: 64.2%
- viability, T/C [27]: 55.7%
- viability, T/C [28]: 55%
- viability, T/C [29]: 56.3%
- viability, T/C [30]: 59.6%
- viability, T/C [31]: 48.8%
- viability, T/C [32]: 50.9%
- viability, T/C [33]: 44.7%
- viability, T/C [34]: 50.3%
- viability, T/C [35]: 55%
- viability, T/C [36]: 51%
